Experimental data published in patent US11390606B2, “Pyridazinone compounds and uses thereof” (Edgewise Therapeutics, Inc., priority 2018, dated 2022).

The compounds below were run against T1, skeletal myofibrils (Rabbit Psoas), myosin ATPase activity (assay: Skeletal Myofibril ATPase Assay). Conditions: skeletal myofibrils (Rabbit Psoas 0.25 mg/mL), PK/LDH-coupled NADH absorbance at 340 nm.
T1 construct: Rabbit Psoas Prep 11 (0.25 mg/mL)
Type: biochemical
Description: Overview: Myosin ATPase activity is assessed by using a coupled reaction system, in which ADP generated by the myosin ATPase function is coupled to the disappearance of NADH through the pyruvate kinase/lactate dehydrogenase (PK-LDH) system. Myosin ATPase activity produces ADP, which is used as a substrate for PK to produce pyruvate and regenerate ATP. The pyruvate is then used as a substrate by LDH to oxidize NADH to NAD+. The rate of the reaction is monitored through the time-dependent disappearance of NADH using absorbance at 340 nm. Inhibition of ATPase activity by the assayed compounds is indicated by a reduced rate of NADH loss, relative to vehicle-treated controls, over the experimental time window. To assess the selectivity of the assayed compounds for skeletal myofibrils, the compounds are counter-screened in cardiac myofibrils.
Materials: The following stock solutions and reagents were used in the Skeletal Myofibril ATPase Assay:
Stock Solutions of pCa buffer. Combine PIPES, CaCl2, and EGTA solutions with 70 mL of water. Adjust pH to 7.0 and bring final volume to 100 mL.
Buffer A & Buffer B. Buffers were stored on ice until use.
Skeletal Myofibril ATPase Assay Procedure: BSA, ATP, NADH, PEP, and DTT solutions were thawed at room temperature, then transferred to ice. Pellet-frozen myofibrils were transferred with approximately twice the required volume into a sufficiently large tube and capped. Myofibrils were thawed by rolling in a water bath for approximately 15 min at room temperature and cooled on ice. Buffers A and B were prepared by adjusting volumes as necessary for required number of wells and stored on ice. 0.5 μL of the compounds to be assayed were added into wells. 25 μL of Buffer A was dispensed into the wells, followed by 25 μL of Buffer B. The wells were measured for absorbance at 340 nm, using a kinetic protocol in which the wells are read every 1.5-2 min for 45 min. The slope of the data was approximated by subtracting the minimum absorbance value from the maximum value for each well. This was accomplished either in the SoftMax Pro software or in a spreadsheet program such as Excel. Using GraphPad Prism 8.0, the data was normalized by assigning a value of 100% to the 1% DMSO vehicle wells. Typically, a normalized 0% value was simply assigned to a (Max−Min) value of 0. The normalized data was fit to a Four Parameter Logistic sigmoidal equation, constraining the bottom to be 0 or greater. Compounds of Table 1 to 4 were tested and results of the assay appear in Table 5 herein. A=IC50 is less than or equal to 10 μM; B=IC50 is greater than 10 μM and less than 100 μM; C=IC50 is greater than 100 μM.

| IC50 | SMILES |
| --- | --- |
| < 10 µM | COc1ccc(Cn2nc(-c3ccc(Cl)cc3)ccc2=O)cc1 [Compound 235, 6-(4-chlorophenyl)-2-(4-methoxybenzyl)pyridazin-3(2H)-one] |
| < 10 µM | O=c1ccc(-c2ccc(C3CC3)cc2)nn1Cc1ccc(Cl)cc1 [Compound 104, 2-(4-chlorobenzyl)-6-(4-cyclopropylphenyl)pyridazin-3(2H)-one] |
| < 10 µM | O=c1ccc(-c2cnc(N3CC(F)(F)C3)nc2)nn1Cc1ccc(Cl)cc1 [Compound 44, 2-(4-chlorobenzyl)-6-(2-(3,3-difluoroazetidin-1-yl)pyrimidin-5-yl)pyridazin-3(2H)-one] |
| < 10 µM | O=c1ccc(-c2ccc(Cl)cc2)nn1Cc1cccc(Cl)c1 [Compound 307, 2-(3-chlorobenzyl)-6-(4-chlorophenyl)pyridazin-3(2H)-one] |
| < 10 µM | O=c1ccc(-c2ccc(F)cc2)nn1Cc1ccc(Cl)cc1 [Compound 300, 2-(4-chlorobenzyl)-6-(4-fluorophenyl)pyridazin-3(2H)-one] |
| < 10 µM | O=c1ccc(-c2cnc(OCC(F)(F)F)nc2)nn1Cc1cc(F)cc(F)c1 [Compound 43, 2-(3,5-difluorobenzyl)-6-(2-(2,2,2-trifluoroethoxy)pyrimidin-5-yl)pyridazin-3(2H)-one] |
| < 10 µM | O=c1ccc(-c2cnc(OCC3(F)COC3)nc2)nn1Cc1ccc(F)cc1F [Compound 24, 2-(2,4-difluorobenzyl)-6-(2-((3-fluorooxetan-3-yl)methoxy)pyrimidin-5-yl)pyridazin-3(2H)-one] |
| < 10 µM | O=c1ccc(-c2ccc(OCC(F)F)cc2)nn1Cc1ccc(Cl)cc1 [Compound 102, 2-(4-chlorobenzyl)-6-(4-(2,2-difluoroethoxy)phenyl)pyridazin-3(2H)-one] |
| 10 to 100 µM | O=C1CCCN1c1ncc(-c2ccc(=O)n(Cc3ccc(Cl)cc3)n2)cn1 [Compound 45, 2-(4-chlorobenzyl)-6-(2-(2-oxopyrrolidin-1-yl)pyrimidin-5-yl)pyridazin-3(2H)-one] |
| > 100 µM | Cn1ncc2cc(-c3ccc(=O)n(Cc4ccc(Cl)cc4)n3)ccc21 [Compound 119, 2-(4-chlorobenzyl)-6-(1-methyl-1H-indazol-5-yl)pyridazin-3(2H)-one] |
| < 10 µM | CC1Cc2cc(-c3ccc(=O)n(Cc4ccc(Cl)cc4)n3)ccc2O1 (stereo not drawn) [Compound 109, 2-(4-chlorobenzyl)-6-(2-methyl-2,3-dihydrobenzofuran-5-yl)pyridazin-3(2H)-one] |
| < 10 µM | O=c1ccc(-c2cnc(OCC(F)(F)F)nc2)nn1Cc1cc(F)ccc1F [Compound 40, 2-(2,5-difluorobenzyl)-6-(2-(2,2,2-trifluoroethoxy)pyrimidin-5-yl)pyridazin-3(2H)-one] |
| < 10 µM | [2H]C([2H])(c1ccccc1)n1nc(-c2cnc(OCC(F)(F)F)nc2)ccc1=O [Compound 52, 2-(phenylmethyl-d2)-6-(2-(2,2,2-trifluoroethoxy)pyrimidin-5-yl)pyridazin-3(2H)-one] |
| < 10 µM | O=c1ccc(-c2ccc(Cl)nc2)nn1Cc1ccc(Cl)cc1 [Compound 304, 2-(4-chlorobenzyl)-6-(6-chloropyridin-3-yl)pyridazin-3(2H)-one] |
| < 10 µM | O=c1ccc(-c2cnc(OCC(F)(F)F)nc2)nn1Cc1cc(Cl)ccc1O [Compound 50, 2-(5-chloro-2-hydroxybenzyl)-6-(2-(2,2,2-trifluoroethoxy)pyrimidin-5-yl)pyridazin-3(2H)-one] |
| < 10 µM | COc1ccc(-c2ccc(=O)n(Cc3ccc(Cl)cc3)n2)cn1 [Compound 17, 2-(4-chlorobenzyl)-6-(6-methoxypyridin-3-yl)pyridazin-3(2H)-one] |
| 10 to 100 µM | COc1ccc(Cn2nc(-c3ccc(F)cc3)ccc2=O)cc1 [Compound 240, 6-(4-fluorophenyl)-2-(4-methoxybenzyl)pyridazin-3(2H)-one] |

| IC50 | SMILES |
| --- | --- |
| < 10 µM | O=c1ccc(-c2cnc(NC3CC3)nc2)nn1Cc1ccc(Cl)cc1 [Compound 8, 2-(4-chlorobenzyl)-6-(2-(cyclopropylamino)pyrimidin-5-yl)pyridazin-3(2H)-one] |
| < 10 µM | O=c1ccc(-c2ccc(Cl)cc2)nn1Cc1ccc(Cl)cc1 [Compound 303, 2-(4-chlorobenzyl)-6-(4-chlorophenyl)pyridazin-3(2H)-one] |
| < 10 µM | O=c1ccc(-c2cnc(OCC(F)(F)F)nc2)nn1Cc1cccc(Cl)c1 [Compound 34, 2-(3-chlorobenzyl)-6-(2-(2,2,2-trifluoroethoxy)pyrimidin-5-yl)pyridazin-3(2H)-one] |
| < 10 µM | O=c1ccc(-c2ccc(OC(F)F)nc2)nn1Cc1ccc(Cl)cc1 [Compound 19, 2-(4-chlorobenzyl)-6-(6-(difluoromethoxy)pyridin-3-yl)pyridazin-3(2H)-one] |
| > 100 µM | O=c1ccc(-c2ccc(F)cc2)nn1Cc1cccc(C(F)(F)F)c1 [Compound 241, 6-(4-fluorophenyl)-2-(3-(trifluoromethyl)benzyl)pyridazin-3(2H)-one] |
| < 10 µM | O=c1ccc(-c2ccc(Cl)cc2)nn1Cc1ccccc1 [Compound 302, 2-benzyl-6-(4-chlorophenyl)pyridazin-3(2H)-one] |
| < 10 µM | O=c1ccc(-c2cnc(OCC(F)(F)F)nc2)nn1Cc1ccc(Cl)cc1 [Compound 5, 2-(4-chlorobenzyl)-6-(2-(2,2,2-trifluoroethoxy)pyrimidin-5-yl)pyridazin-3(2H)-one] |
| < 10 µM | O=c1ccc(-c2ccc(OC(F)(F)F)cc2)nn1Cc1ccc(Cl)cc1 [Compound 105, 2-(4-chlorobenzyl)-6-(4-(trifluoromethoxy)phenyl)pyridazin-3(2H)-one] |
| < 10 µM | O=c1ccc(-c2ccc(OCC3(F)COC3)nc2)nn1Cc1ccc(Cl)cc1 [Compound 21, 2-(4-chlorobenzyl)-6-(6-((3-fluorooxetan-3-yl)methoxy)pyridin-3-yl)pyridazin-3(2H)-one] |
| < 10 µM | O=c1ccc(-c2cnc(OCC(F)(F)F)nc2)nn1Cc1ccc(F)cc1 [Compound 37, 2-(4-fluorobenzyl)-6-(2-(2,2,2-trifluoroethoxy)pyrimidin-5-yl)pyridazin-3(2H)-one] |
| > 100 µM | NC(=O)c1ccc(Cn2nc(-c3ccc(OC(F)F)cc3)ccc2=O)cc1 [Compound 116, 4-((3-(4-(difluoromethoxy)phenyl)-6-oxopyridazin-1(6H)-yl)methyl)benzamide] |
| < 10 µM | O=c1ccc(-c2cnc(OCC(F)(F)F)nc2)nn1Cc1ccc(CO)cc1 [Compound 48, 2-(4-(hydroxymethyl)benzyl)-6-(2-(2,2,2-trifluoroethoxy)pyrimidin-5-yl)pyridazin-3(2H)-one] |
| < 10 µM | O=c1ccc(-c2ccc(Br)cc2)nn1Cc1ccccc1 [Compound 239, 2-benzyl-6-(4-bromophenyl)pyridazin-3(2H)-one] |
| < 10 µM | COc1ccc(-c2ccc(=O)n(Cc3ccccc3)n2)cc1 [Compound 211, 2-benzyl-6-(4-methoxyphenyl)pyridazin-3(2H)-one] |
| < 10 µM | O=c1ccc(-c2ccc(OC(F)F)nc2)nn1Cc1ccc(F)c(Cl)c1 [Compound 20, 2-(3-chloro-4-fluorobenzyl)-6-(6-(difluoromethoxy)pyridin-3-yl)pyridazin-3(2H)-one] |
| < 10 µM | CCCc1ccc(-c2ccc(=O)n(Cc3ccc(Cl)cc3)n2)cc1 [Compound 312, 2-(4-chlorobenzyl)-6-(4-propylphenyl)pyridazin-3(2H)-one] |
